Data as given in paper PMC6458159, “Mechanisms of redundancy and specificity of the Aspergillus fumigatus Crh transglycosylases” (Nature Communications, 2019).

Target: T1, AfCrh5 (Aspergillus fumigatus, UniProt Q8J0P4)
T1 construct: gene crh5; GST cleaved off by PreScission, N-terminal His6 kept; E. coli BL21(DE3) pLysS
T1 sequence (Q8J0P4 22-275): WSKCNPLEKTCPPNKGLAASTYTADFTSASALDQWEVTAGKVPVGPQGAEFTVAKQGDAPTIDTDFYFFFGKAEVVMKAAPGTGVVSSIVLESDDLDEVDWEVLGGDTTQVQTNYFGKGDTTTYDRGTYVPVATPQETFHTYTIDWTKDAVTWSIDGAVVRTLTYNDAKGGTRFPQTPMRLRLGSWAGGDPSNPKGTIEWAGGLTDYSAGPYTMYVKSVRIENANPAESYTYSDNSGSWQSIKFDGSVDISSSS
Test: fluorescent transglycosylation filter-paper assay
Type: biochemical
Details: acceptor; donor carboxymethyl-chitin; 50 mM citrate pH 4.9, 37 °C; labelled compound
Source text: fluorescent transglycosylation filter-paper assay on AfCrh5

Substance | Km
SR-labelled chitopentaose [CH5-SR] | 3.5 ± 0.4 µM
SR-labelled laminaripentaose [L5-SR] | 12 ± 3 µM
